The record followed here is publication PMC8625740, “Triterpenoid Saponins from the Cultivar “Green Elf” of Pittosporum tenuifolium” (Molecules, 2021).

The target in the test is T1, hTAS1R2 (TAS1R2/TAS1R3 sweet taste receptor) (Homo sapiens, UniProt Q8TE23).
T1 construct: with hTAS1R3 (TAS1R3)
T1 sequence (Q8TE23 20-839): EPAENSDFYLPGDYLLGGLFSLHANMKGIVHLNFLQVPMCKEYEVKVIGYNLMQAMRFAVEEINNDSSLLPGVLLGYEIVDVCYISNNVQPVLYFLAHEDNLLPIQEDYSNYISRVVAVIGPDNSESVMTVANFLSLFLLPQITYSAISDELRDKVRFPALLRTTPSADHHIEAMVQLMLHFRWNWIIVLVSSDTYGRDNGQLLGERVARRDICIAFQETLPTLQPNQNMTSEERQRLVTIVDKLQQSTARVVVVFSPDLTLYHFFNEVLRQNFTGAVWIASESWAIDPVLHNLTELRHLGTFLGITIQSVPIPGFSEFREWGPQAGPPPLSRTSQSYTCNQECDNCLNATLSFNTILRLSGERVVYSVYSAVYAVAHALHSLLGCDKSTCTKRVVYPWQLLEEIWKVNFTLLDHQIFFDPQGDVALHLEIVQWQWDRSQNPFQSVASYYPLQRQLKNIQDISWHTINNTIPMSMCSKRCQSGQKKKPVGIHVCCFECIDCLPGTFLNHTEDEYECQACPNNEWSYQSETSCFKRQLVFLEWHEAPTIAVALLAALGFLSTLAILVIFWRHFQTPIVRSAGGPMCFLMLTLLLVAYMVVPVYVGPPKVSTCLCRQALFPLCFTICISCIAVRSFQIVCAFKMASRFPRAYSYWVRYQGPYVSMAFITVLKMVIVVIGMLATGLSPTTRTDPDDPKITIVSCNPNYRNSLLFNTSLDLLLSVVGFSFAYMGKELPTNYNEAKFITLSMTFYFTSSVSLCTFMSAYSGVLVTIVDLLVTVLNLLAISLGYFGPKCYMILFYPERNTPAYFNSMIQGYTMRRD
T1 sequence (Q7RTX0 21-852 partner): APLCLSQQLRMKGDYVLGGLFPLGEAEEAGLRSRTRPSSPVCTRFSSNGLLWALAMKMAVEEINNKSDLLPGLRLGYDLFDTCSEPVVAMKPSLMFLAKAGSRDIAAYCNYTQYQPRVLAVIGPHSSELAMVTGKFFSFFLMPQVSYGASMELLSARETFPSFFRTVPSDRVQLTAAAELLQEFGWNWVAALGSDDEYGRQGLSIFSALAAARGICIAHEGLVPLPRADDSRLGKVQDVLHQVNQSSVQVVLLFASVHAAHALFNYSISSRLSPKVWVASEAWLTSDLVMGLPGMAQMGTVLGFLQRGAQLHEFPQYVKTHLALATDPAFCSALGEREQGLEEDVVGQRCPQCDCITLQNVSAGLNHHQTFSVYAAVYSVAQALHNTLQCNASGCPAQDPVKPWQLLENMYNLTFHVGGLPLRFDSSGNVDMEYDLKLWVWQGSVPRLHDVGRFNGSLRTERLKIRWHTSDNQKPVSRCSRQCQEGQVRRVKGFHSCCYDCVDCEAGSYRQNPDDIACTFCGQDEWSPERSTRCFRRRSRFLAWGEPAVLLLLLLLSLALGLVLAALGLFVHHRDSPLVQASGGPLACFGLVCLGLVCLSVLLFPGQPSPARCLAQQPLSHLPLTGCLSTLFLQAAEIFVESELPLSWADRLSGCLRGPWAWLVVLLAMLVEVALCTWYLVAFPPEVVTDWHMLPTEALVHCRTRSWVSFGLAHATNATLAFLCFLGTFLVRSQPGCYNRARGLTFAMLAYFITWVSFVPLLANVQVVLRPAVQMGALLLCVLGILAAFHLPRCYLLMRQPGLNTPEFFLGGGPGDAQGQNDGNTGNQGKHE
Kind of test: calcium mobilization (GCaMP5G, FLIPR) in HEK293T-Gα[…]gust44 cells transfected with hTAS1R2 and hTAS1R3, mock-subtracted. The class given is cell-based.

Structures are written as SMILES.

Consider `OC[C@H]1O[C@H](O[C@]2(CCl)O[C@H](CCl)[C@@H](O)[C@@H]2O)[C@H](O)[C@@H](O)[C@H]1Cl` [sucralose], for which the EC50 was 52 ± 7 µM.
